The supplement of paper PMC7661543
± gives the standard deviation of the averaged measurements.

tested on: ZR-75-1; assay: relative cell number vs DMSO control (72 h) (% of DMSO); higher = less growth inhibition (more cells); conditions: sgRNA knockout: sgNT, 10000 nM
Method: (§1)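 QMAP-Seq: a pool of 5 breast cancer cell lines (ZR-75-1, SKBR3, HCC-38, MDA-MB-231, BT-20), each carrying 12 doxycycline-inducible Cas9 sgRNA perturbations (11 knockouts plus non-targeting sgNT), was treated with compounds for 72 h at four 10-fold doses (10 nM-10 uM or 1 nM-1 uM range). Barcodes were amplified and sequenced, and cell number was interpolated from 293T spike-in standard curves. The result is expressed as % of the median of DMSO wells. Two biological replicates.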

| SMILES | relative cell number |
| --- | --- |
| CCOc1ccccc1-n1c(C(C)N2CCN(C(=O)COc3ccc(Cl)cc3)CC2)nc2ccccc2c1=O (stereo not given) [Erastin] | 60.6 ± 13 |
| CN1C(=O)C(Cc2c[nH]c3ccccc23)NC1=S (stereo not given) [Necrostatin1] | 84.6 ± 35 |
| O=C1NC(=O)[C@@H](c2cn3c4c(cccc24)CCC3)[C@@H]1c1c[nH]c2ccccc12 [Tivantinib] | 16.6 ± 1.9 |
| CCn1c(=O)c2c(nc(/C=C/c3ccc(OC)c(OC)c3)n2C)n(CC)c1=O [Istradefylline] | 94.9 ± 19 |
| COc1ccc(-c2ccc3c(N4CCOCC4)nc(N4C[C@@H](C)O[C@@H](C)C4)nc3n2)cc1CO | 36.1 ± 2.1 |
| C[C@]12CC[C@@H]3c4ccc(O)cc4C[C@@H](CCCCCCCCC[S+]([O-])CCCC(F)(F)C(F)(F)F)[C@H]3[C@@H]1CC[C@@H]2O (stereo not given in full) [Fulvestrant] | 84 ± 39 |
| COC(=O)Nc1nc2cc(C(=O)c3ccccc3)ccc2[nH]1 [Mebendazole] | 14 ± 8.6 |
| O=C(NOCC(O)CO)c1cc(Br)c(F)c(F)c1Nc1ccc(I)cc1F (stereo not given) | 56.5 ± 2.3 |
| OCc1ccc(-c2ccc(-c3ccc(CO)s3)o2)s1 | 4.09 ± 1.8 |
| CC(=O)Nc1cccc(-n2c(=O)n(C3CC3)c(=O)c3c(Nc4ccc(I)cc4F)n(C)c(=O)c(C)c32)c1 [Trametinib] | 40.3 ± 22 |
| C=CCn1c(=O)c2cnc(Nc3ccc(N4CCN(C)CC4)cc3)nc2n1-c1cccc(C(C)(C)O)n1 [MK1775] | 15.6 ± 6 |
| S=c1nc[nH]c2nc[nH]c12 [6-Mercaptopurine] | 55.5 ± 22 |

tested on: BT-20; assay: as above; conditions: sgRNA knockout: sgNT, 1 nM
Method: as §1

| SMILES | relative cell number |
| --- | --- |
| CC(C)C[C@H](NC(=O)[C@H](CCc1ccccc1)NC(=O)CN1CCOCC1)C(=O)N[C@@H](Cc1ccccc1)C(=O)N[C@@H](CC(C)C)C(=O)[C@@]1(C)CO1 [Carfilzomib] | 80.9 ± 18 |

same assay, conditions: sgRNA knockout: sgNT, 10 nM

| SMILES | relative cell number |
| --- | --- |
| Cc1cnc(Nc2ccc(OCCN3CCCC3)cc2)nc1Nc1cccc(S(=O)(=O)NC(C)(C)C)c1 | 99.9 ± 19 |
| CN(C)CC[C@H](CSc1ccccc1)Nc1ccc(S(=O)(=O)NC(=O)c2ccc(N3CCN(Cc4ccccc4-c4ccc(Cl)cc4)CC3)cc2)cc1[N+](=O)[O-] [ABT737] | 93.2 ± 26 |
| O=P1(N(CCCl)CCCl)NCCCO1 (stereo not given) [Cyclophosphamide] | 81.2 ± 1.5 |
| CCOC(=O)[C@@]1(CCCCCCOc2ccc(Cl)cc2)CO1 [Etomoxir] | 97.7 ± 1 |
| Cc1ccc(Nc2nccc(N(C)c3ccc4c(C)n(C)nc4c3)n2)cc1S(N)(=O)=O [Pazopanib] | 102 ± 15 |
| CC(C)C[C@H](NC(=O)[C@H](CCc1ccccc1)NC(=O)CN1CCOCC1)C(=O)N[C@@H](Cc1ccccc1)C(=O)N[C@@H](CC(C)C)C(=O)[C@@]1(C)CO1 [Carfilzomib] | 80.32 ± 0.3 |
| N.N.[Cl][Pt][Cl] [Cisplatin] | 100 ± 7.4 |
| Cc1cc2c(C(C)C)c(O)c(O)c(C=O)c2c(O)c1-c1c(C)cc2c(C(C)C)c(O)c(O)c(C=O)c2c1O [Gossypol] | 96.2 ± 1.7 |
| COc1cccc2c1C(=O)c1c(O)c3c(c(O)c1C2=O)C[C@@](O)(C(=O)CO)C[C@@H]3O[C@H]1C[C@H](N)[C@H](O)[C@H](C)O1 [Doxorubicin] | 83 ± 11 |
| CCC(C)SSc1ncc[nH]1 (stereo not given) [PX12] | 116 ± 7.8 |
| CC(=O)Nc1nc(C)c(S(=O)(=O)Nc2ccc(C(O)(C(F)(F)F)C(F)(F)F)cc2)s1 [SR1001] | 111 ± 12 |
| CN1CCc2c(c3ccccc3n2Cc2ccc(C(=O)NO)cc2)C1 [TubastatinA] | 98.7 ± 12 |
| CCOc1ccccc1-n1c(C(C)N2CCN(C(=O)COc3ccc(Cl)cc3)CC2)nc2ccccc2c1=O (stereo not given) [Erastin] | 122 ± 20 |
| CN1C(=O)C(Cc2c[nH]c3ccccc23)NC1=S (stereo not given) [Necrostatin1] | 110 ± 16 |
| O=C1NC(=O)[C@@H](c2cn3c4c(cccc24)CCC3)[C@@H]1c1c[nH]c2ccccc12 [Tivantinib] | 109 ± 24 |
| CCn1c(=O)c2c(nc(/C=C/c3ccc(OC)c(OC)c3)n2C)n(CC)c1=O [Istradefylline] | 109 ± 12 |
| COc1ccc(-c2ccc3c(N4CCOCC4)nc(N4C[C@@H](C)O[C@@H](C)C4)nc3n2)cc1CO | 110 ± 9.1 |
| C[C@]12CC[C@@H]3c4ccc(O)cc4C[C@@H](CCCCCCCCC[S+]([O-])CCCC(F)(F)C(F)(F)F)[C@H]3[C@@H]1CC[C@@H]2O (stereo not given in full) [Fulvestrant] | 95.9 ± 6.4 |
| COC(=O)Nc1nc2cc(C(=O)c3ccccc3)ccc2[nH]1 [Mebendazole] | 87.1 ± 7.3 |
| O=C(NOCC(O)CO)c1cc(Br)c(F)c(F)c1Nc1ccc(I)cc1F (stereo not given) | 86.8 ± 14 |
| OCc1ccc(-c2ccc(-c3ccc(CO)s3)o2)s1 | 110 ± 32 |
| CC(=O)Nc1cccc(-n2c(=O)n(C3CC3)c(=O)c3c(Nc4ccc(I)cc4F)n(C)c(=O)c(C)c32)c1 [Trametinib] | 97.3 ± 1.3 |
| C=CCn1c(=O)c2cnc(Nc3ccc(N4CCN(C)CC4)cc3)nc2n1-c1cccc(C(C)(C)O)n1 [MK1775] | 95.2 ± 12 |
| S=c1nc[nH]c2nc[nH]c12 [6-Mercaptopurine] | 97.8 ± 13 |

same assay, conditions: sgRNA knockout: sgNT, 100 nM

| SMILES | relative cell number |
| --- | --- |
| Cc1cnc(Nc2ccc(OCCN3CCCC3)cc2)nc1Nc1cccc(S(=O)(=O)NC(C)(C)C)c1 | 92.6 ± 1.8 |
| CN(C)CC[C@H](CSc1ccccc1)Nc1ccc(S(=O)(=O)NC(=O)c2ccc(N3CCN(Cc4ccccc4-c4ccc(Cl)cc4)CC3)cc2)cc1[N+](=O)[O-] [ABT737] | 97.5 ± 10 |
| O=P1(N(CCCl)CCCl)NCCCO1 (stereo not given) [Cyclophosphamide] | 114 ± 0.31 |
| CCOC(=O)[C@@]1(CCCCCCOc2ccc(Cl)cc2)CO1 [Etomoxir] | 90.3 ± 13 |
| Cc1ccc(Nc2nccc(N(C)c3ccc4c(C)n(C)nc4c3)n2)cc1S(N)(=O)=O [Pazopanib] | 86.8 ± 3.6 |
| CC(C)C[C@H](NC(=O)[C@H](CCc1ccccc1)NC(=O)CN1CCOCC1)C(=O)N[C@@H](Cc1ccccc1)C(=O)N[C@@H](CC(C)C)C(=O)[C@@]1(C)CO1 [Carfilzomib] | 21.4 ± 4.5 |
| N.N.[Cl][Pt][Cl] [Cisplatin] | 80.4 ± 4.7 |
| Cc1cc2c(C(C)C)c(O)c(O)c(C=O)c2c(O)c1-c1c(C)cc2c(C(C)C)c(O)c(O)c(C=O)c2c1O [Gossypol] | 80.1 ± 8.4 |
| COc1cccc2c1C(=O)c1c(O)c3c(c(O)c1C2=O)C[C@@](O)(C(=O)CO)C[C@@H]3O[C@H]1C[C@H](N)[C@H](O)[C@H](C)O1 [Doxorubicin] | 46 ± 1.4 |
| CCC(C)SSc1ncc[nH]1 (stereo not given) [PX12] | 132 ± 1.4 |
| CC(=O)Nc1nc(C)c(S(=O)(=O)Nc2ccc(C(O)(C(F)(F)F)C(F)(F)F)cc2)s1 [SR1001] | 92.4 ± 17 |
| CN1CCc2c(c3ccccc3n2Cc2ccc(C(=O)NO)cc2)C1 [TubastatinA] | 97.3 ± 11 |
| CCOc1ccccc1-n1c(C(C)N2CCN(C(=O)COc3ccc(Cl)cc3)CC2)nc2ccccc2c1=O (stereo not given) [Erastin] | 84.4 ± 8.1 |
| CN1C(=O)C(Cc2c[nH]c3ccccc23)NC1=S (stereo not given) [Necrostatin1] | 63.8 ± 8.2 |
| O=C1NC(=O)[C@@H](c2cn3c4c(cccc24)CCC3)[C@@H]1c1c[nH]c2ccccc12 [Tivantinib] | 83.6 ± 12 |
| CCn1c(=O)c2c(nc(/C=C/c3ccc(OC)c(OC)c3)n2C)n(CC)c1=O [Istradefylline] | 104 ± 5.7 |
| COc1ccc(-c2ccc3c(N4CCOCC4)nc(N4C[C@@H](C)O[C@@H](C)C4)nc3n2)cc1CO | 119 ± 17 |
| C[C@]12CC[C@@H]3c4ccc(O)cc4C[C@@H](CCCCCCCCC[S+]([O-])CCCC(F)(F)C(F)(F)F)[C@H]3[C@@H]1CC[C@@H]2O (stereo not given in full) [Fulvestrant] | 79.5 ± 6.8 |
| COC(=O)Nc1nc2cc(C(=O)c3ccccc3)ccc2[nH]1 [Mebendazole] | 78.9 ± 21 |
| O=C(NOCC(O)CO)c1cc(Br)c(F)c(F)c1Nc1ccc(I)cc1F (stereo not given) | 86.9 ± 14 |
| OCc1ccc(-c2ccc(-c3ccc(CO)s3)o2)s1 | 77.9 ± 13 |
| CC(=O)Nc1cccc(-n2c(=O)n(C3CC3)c(=O)c3c(Nc4ccc(I)cc4F)n(C)c(=O)c(C)c32)c1 [Trametinib] | 65.2 ± 12 |
| C=CCn1c(=O)c2cnc(Nc3ccc(N4CCN(C)CC4)cc3)nc2n1-c1cccc(C(C)(C)O)n1 [MK1775] | 84.17 ± 0.44 |
